The text below walks through data of PMC7927014, “Novel Small Molecule Hsp90/Cdc37 Interface Inhibitors Indirectly Target K-Ras-Signaling” (Cancers, 2021).

Structures are written as SMILES.

The target of one assay is T1, N-Hsp90/Cdc37 (Homo sapiens, UniProt P07900).
T1 construct: only the N-terminal ATP-ase domain of Hsp90 (N-Hsp90, residues 1-223); expressed in transfected cells; host or cells: HEK293 EBNA cells, cleared lysates
The assay can be described thus: N-Hsp90/Cdc37 split Renilla luciferase assay (N-terminal Hsp90 fragment, residues 1-223). In kind it is biochemical. Conditions: cell lysate. On the procedure: The Hsp90/Cdc37 split Renilla luciferase assay using the full length Hsp90 for the compound screening was described previously. […] After 48 h, the cells were trypsinized and washed with PBS. The harvested cells were lysed in 1 mL of the 1x lysis buffer provided in the Renilla Luciferase Reporter Assay System Kit from Promega (cat. E2820), and were incubated on ice for 10 min. The cell lysates were then cleared by centrifugation at 13,000× g for 1 min. […] After this, the screening/test compounds or DMSO—as indicated—were added to each well. In total, 5 µL NRL-Hsp90- or NRL-N-Hsp90-lysate was added to each well, one row at a time. Subsequently, the plate was incubated for 5 min at room temperature (RT). […] Just before the reading, 20 µL assay buffer containing 2× Renilla luciferase substrate (coelenterazine) was added. For the FIMM screening, sample wells were read on a PHERAstar plate reader (BMG LABTECH) at a gain level of 4000, after 10 s shaking, using a hypomorph of NRL-Hsp90. For the subsequent validations of the compounds, sample wells with the above-described assay constructs were read using a synergy H1 Hybrid Multi-Mode reader (BioTek) in the luminescence detection mode, as described previously in detail.

The next assay concerns MDA-MB-231 cells. Description: 2D cell proliferation (alamarBlue). In kind it is cell-based. The conditions noted are these: Homo sapiens, MDA-MB-231, 72 h. On the procedure:
Per well, 500–700 cells were seeded in 96-well flat bottom culture plates in 100 µL. After 24 h, the cells were treated with 0.1% DMSO vehicle control or test compounds diluted in a medium using a 1:2 dilution-series, starting at 100 µM. The plates were further incubated for 72 h. The cell viability was measured after the addition of 10% alamarBlue reagent per well (cat. no. DAL1100, Thermo Fisher Scientific). The fluorescence intensity (excitation 560 nm and emission 590 nm) was measured after 4 h by the use of a H1 Hybrid Multi-Mode reader.
(In general: The colour change of resazurin is a common sign of viable cells or microbes.)

In a further assay the test system is MDA-MB-231 microtumors. Description: Chick chorioallantoic membrane (CAM) microtumor assay. It counts as in vivo, chick embryo. Conditions: 5 days. How it is done: The fertilized eggs were incubated at 37 °C in a 55% to 60% humidified egg hatcher incubator (MG100, Fiem). After 8 days, 2 million MDA-MB-231 cells were resuspended in 1× PBS and Matrigel (BD Biosciences) at a ratio of 1:1, and were then deposited within sterilized 7 mm diameter plastic rings cut from a plastic pipette (cat. no. LW4111, Alpha Laboratories Limited) on a surface of chicken embryo CAM. The xenografted tumors were treated with 20 µL 0.1% DMSO vehicle control or the test compound diluted in 1× PBS once a day, starting from 24 h after cell seeding. The microtumors were harvested after 5 days of treatment. The microtumors were collected in pre-weighted 1.5 mL Eppendorf tubes containing 500 µL PBS, and the tumor mass was determined by the difference of the weights.

The next assay has as its system K-RasG12V nanoclustering. The assay can be described thus: K-RasG12V nanoclustering-FRET (FLIM-FRET) in HEK cells. In kind it is cell-based. The conditions noted are these: 24 h, conglobatin A 2 μM, salinomycin 1.3 μM, 17-AAG 2 μM, CAY10585 10 μM, hit compounds indicated concentrations. On the procedure:
In total, 80,000 HEK cells were seeded in 12-well plates containing sterilized 16-mm coverslips and 1 mL medium. The next day, the cells were transfected using jetPRIME or FuGENE HD transfection reagent. For the donor fluorophore-only samples, the cells were transfected with 500 ng mGFP-tagged RasG12V plasmid. For the nanoclustering-FRET pair samples, the cells were transfected with both the donor and acceptor constructs, i.e., pmGFP- and pmCherry- RasG12V at a plasmid ratio of 1:3, respectively, and a total of 800 ng plasmids. The next day, the cells were treated with either 0.1% DMSO vehicle control or the indicated concentrations of compounds diluted in DMEM or RPMI medium for 24 h. For the gene silencing studies, the cells were transfected with the indicated amounts of siRNAs, together with the FRET pair constructs. The plasmids and siRNA were diluted in the same jetPRIME transfection buffer, followed by the addition of jetPRIME. […] The lifetime of the mGFP donor fluorophore was measured using a fluorescence microscope (Zeiss AXIO Observer D1) equipped with a fluorescence lifetime imaging attachment (Lambert Instruments), as described previously in detail. The apparent FRET efficiency (Eapp) was calculated as Eapp = (1 − τDA/τD) × 100%, with the measured fluorescence lifetimes τDA of the FRET sample and the τD of the donor-only sample.

Usually IC50 stands for the concentration at which inhibition is half-maximal. With `C/C1=C\[C@H](C)C[C@H](C)[C@H](Cc2cnco2)OC(=O)/C(C)=C/[C@H](C)C[C@H](C)[C@H](Cc2cnco2)OC1=O` [conglobatin A, reference compound], the IC50 on N-Hsp90/Cdc37 was determined as 4.5 ± 0.8 µM; with MDA-MB-231 cells it was 32 ± 2 µM. Also, the “microtumor growth on CAM” value with MDA-MB-231 microtumors (MDA-MB-231, 10 μM) is reported as “significantly reduced”. Moreover, the “K-RasG12V nanoclustering-FRET” value in the assay with K-RasG12V nanoclustering was “selective inhibition of K-RasG12V-”.

With `CCOc1ccc(C(=O)c2ccc(O)c(O)c2O)cc1` [×1540, 2,3,4-TRIHYDROXY-4'-ETHOXYBENZOPHENONE], the IC50 on N-Hsp90/Cdc37 was 44 ± 9 µM; with MDA-MB-231 cells it was 29 ± 3 µM. For the same compound, the “microtumor growth on CAM” value in the assay on MDA-MB-231 microtumors (MDA-MB-231, 20 μM) is “significantly reduced”. For the same compound, in the assay with K-RasG12V nanoclustering, the “K-RasG12V nanoclustering-FRET” value is listed as “displayed K-Ras-selectivity”.

For the compound `N=C(CSS(=O)(=O)O)NCC12CC3CC(CC(C3)C1)C2` [×6506, [({N-[(adamantan-1-yl)methyl]carbamimidoyl}methyl)sulfanyl]sulfonic acid], the values for the IC50 on N-Hsp90/Cdc37 and with MDA-MB-231 cells were 4.1 ± 0.4 µM and 32.6 ± 0.5 µM, respectively. Moreover, the “microtumor growth on CAM” value in the assay on MDA-MB-231 microtumors (MDA-MB-231, 20 μM) is recorded as “significantly reduced”. In the assay on K-RasG12V nanoclustering, the “K-RasG12V nanoclustering-FRET” value is “displayed K-Ras-selectivity”.
